Assay results reported in paper PMC12587601 (Antimicrobial Agents and Chemotherapy, 2025).
Marks after values point to notes of the source that are not given here.

Key:
[1] = Covariate effects forest plot of simulated ritonavir AUC0–24 h (1,000 simulations accounting for parameter uncertainty); parameters: species or system African children with HIV; conditions: reference a child of 26 kg receiving 100 mg of ritonavir in combination with darunavir
Protocol: (§1) Covariates were maintained if they reached statistical significance of P < 0.05 on forward addition and P < 0.01 on backward elimination. […] The performance of intermediate and final models was assessed both numerically and using goodness of fit plots, and by simulation-based diagnostics such as visual predictive checks (VPC) ([23]). Parameter precision was evaluated using the sampling importance resampling (SIR) procedure ([24]). The effect of covariates on the simulated area under the curve from 0 to 24 hours (AUC0–24 h) for all study arms was visualized using a forest plot based on 1,000 simulations accounting for parameter uncertainty ([25]).

[2] = parameters: method as in PMID 19210693; conditions: cross-over pharmacokinetic study; cited from earlier work
[3] = Population pharmacokinetic analysis of ritonavir plasma concentrations (CHAPAS-4 pharmacokinetic sub-study, week 6, NONMEM)
Protocol: The trial included children with HIV from Zambia, Uganda, and Zimbabwe, aged 3–15 years, weighing at least 14 kg (Table 1), receiving abacavir-, zidovudine-, or stavudine-containing NRTI backbone and failing on ART according to WHO criteria (confirmed viral load >1,000 copies/mL after adherence counseling or CD4 criteria for failure or clinical criteria for failure). A nested pharmacokinetic sub-study was conducted within the CHAPAS-4 trial. […] Written informed consent was given by parents/caregivers, and local and national ethics committees approved the main trial and nested pharmacokinetic sub-study.
The dose depended on the companion PI (Table 2). NRTI backbones were also dosed according to weight bands. Children were followed up for 96 weeks. Pharmacokinetic blood samples were collected after week 6 of study treatment. Samples were collected at pre-dose, 0.5 (only for those on TAF/FTC), 1, 2, 4, 6, 8, 12, and 24 hours post-dose, and plasma was stored at −80°C. On the day of pharmacokinetic blood sampling, study drugs were administered under direct observation, with food (breakfast with 5% fat, ~250 kCal). All non-ART co-medications were taken at least 2 hours after study drugs.
R v4.2.2 via RStudio (Posit Public Benefit Corporation) and Pirana v2.9.9 (Certara, Inc.) were utilized to visualize and process the data, and Perl Speaks NONMEM v5.2.6 (Department of Pharmacy, Uppsala University) was used for automation of the analysis processes ([17]).
We tested one- and two-compartment disposition models and several absorption models (sequential zero- and/or first-order, with lag time or transit compartments). Simple first-order elimination as well as first-pass and saturable elimination through a liver compartment were tested. We included between-subject variability (BSV) on disposition parameters and between-occasion variability (BOV) on absorption parameters, assuming a log-normal distribution. Combined additive and proportional error models to describe residual unexplained variability were evaluated. Samples with undetectable drug concentrations were treated as censored at the limit of detection (LOD), which was imputed as 30% of the LLOQ ([19]), and handled using a modified version of the M6 method by Beal ([20]). The undetectable (i.e., censored) values were imputed to half of the LOD value (LOD/2), and the additive error was inflated by LOD/2. If a series of undetectable values was present, the value closest to the peak concentration was retained, while all trailing values were excluded from the model fit but retained for simulation-based diagnostics.
as §1

SMILES: CC(C)c1nc(CN(C)C(=O)N[C@H](C(=O)N[C@@H](Cc2ccccc2)C[C@H](O)[C@H](Cc2ccccc2)NC(=O)OCc2cncs2)C(C)C)cs1 [ritonavir]
- Increase of ritonavir AUC0–24 h by atazanavir [1]: 99.0%
- Lowering of plasma AUC of ritonavir by darunavir [2]: 14%
- Observed Cmax of ritonavir, median (interquartile range) ([3]; atazanavir/ritonavir once daily, weight band 14–19.9 kg, ATV/r 200/75 mg, 3 out of 12 children got 100 mg ritonavir instead of 75 mg): 2.68 (2.33–3.25)^a mg/L
- Observed Cmax of ritonavir, median (interquartile range) ([3]; darunavir/ritonavir once daily, weight band 20–24.9 kg, DRV/r 600/100 mg): 1.27 (1.10–1.52) mg/L
- Observed Cmax of ritonavir, median (interquartile range) ([3]; darunavir/ritonavir once daily, weight band ≥35 kg, DRV/r 800/100 mg): 0.81 (0.53–1.04) mg/L
- Between-occasion variability, Bioavailability ([3]; human, in vivo): 40.1 (35.2–46.0) %
- Between-occasion variability, First-order absorption rate constant ([3]; human, in vivo): 114 (90.0–141) %
- Between-occasion variability, Lag time ([3]; human, in vivo): 62.0 (54.5–70.2) %
- Between-occasion variability, Zero-order rate of absorption ([3]; human, in vivo): 52.5 (42.7–63.0) %
- Between-subject variability, Clearance ([3]; human, in vivo): 13.1 (10.2–15.8) %
- Extra variability for unobserved doses ([3]; human, in vivo): 2.14 (1.53–2.42) fold change
- First-order absorption rate constant, typical value (95% confidence interval) ([3]; human, in vivo): 1.16 (0.893–1.89) 1/h
- Lag time, typical value (95% confidence interval) ([3]; human, in vivo): 0.981 (0.934–1.06) h
- Zero-order absorption duration, typical value (95% confidence interval) ([3]; human, in vivo): 2.45 (2.05–2.80) h
- Central volume of distribution, typical value (95% confidence interval) ([3]; human, in vivo, po): 54.5 (48.9–60.4) L
- Clearance, typical value (95% confidence interval) ([3]; human, in vivo, po): 10.5 (9.22–11.9) L/h
- Cmax ([3]; human, in vivo, po): 1320 ng/mL
- Intercompartmental clearance, typical value (95% confidence interval) ([3]; human, in vivo, po): 1.19 (0.851–1.58) L/h
- Peripheral volume of distribution, typical value (95% confidence interval) ([3]; human, in vivo, po): 134 (38.8–330) L
- Cmax ([3]; human, in vivo, po, 100 mg, Observed Cmax of ritonavir, median (interquartile range)): 2760 ng/mL
- Model-based AUC0–24 h of ritonavir, median (interquartile range) ([3]; lopinavir/ritonavir twice daily, weight band 20–24.9 kg, daily dose LPV/r 400/100 mg): 10.3 (7.30–12.8) mg·h/L
- Observed Cmax of ritonavir, median (interquartile range) ([3]; lopinavir/ritonavir twice daily, weight band ≥35 kg, daily dose LPV/r 800/200 mg): 0.80 (0.47–1.42) mg/L
